Laboratory results published in US20220170028A1, “NOVEL INTERLEUKIN-2 VARIANTS AND BIFUNCTIONAL FUSION MOLECULES THEREOF” (Cugene Inc, priority 2019, published 2022).

Assays:
[1] = test system: Treg cells; assay: Treg proliferation and expansion in mice after a single s.c. injection of bifunctional constructs (Example 17); type: in vivo, mouse; conditions: 15 nmol/kg single s.c., C57/BL6 mice
Experimental: IL-2 variant tocilizumab bifunctional proteins P-0536, P-0546, P-0559, and P-0560 along with IL-2 variant Fc fusion protein P-0511 were administered to mice, and their ability to preferentially proliferate and expand regulatory T cells (CD4+CD25+FoxP3+ T cells) over effector T cells and NK cells were determined in vivo.
Female C57/BL6 mice (7-week old) were received from Charles River Laboratory and acclimated in house for at least 7 days before the study. Vehicle (PBS) and 15 nmol/kg each test compounds were subcutaneously administered to mice on day 0. Peripheral blood samples were collected into heparin-treated tubes on days 2, 4 and 8 post-treatment. Each group contained 5 mice and baseline blood was collected 3 days prior to the treatment (day −3).

[2] = test system: Treg cells; assay: Treg proliferation and expansion in mice after a single subcutaneous injection (Example 9); type: in vivo, mouse; conditions: 0.3 mg/kg single s.c., C57/BL6 mice
Experimental: IL-2 variant Fc fusion proteins were administered to mice and their ability to preferentially proliferate and expand regulatory T cells (CD4+CD25+FoxP3+ T cells) over effector T cells and NK cells were determined in vivo.
Female C57/BL6 mice (7-week old) were received from Charles River Laboratory and acclimated in house for at least 7 days before the study. Vehicle (PBS), 0.3 mg/kg of each test compounds, or IL-2 benchmark compounds were subcutaneously administered to mice on day 0. Peripheral blood samples were collected into heparin-treated tubes on days 3, 5 and 7 post-treatment. Each group contained 6 mice and baseline blood was collected 2 days prior to the treatment (day −2). After red blood cell lysis, total viable mononuclear blood cells were counted by trypan blue dead cell exclusion method and proceeded to intracellular staining for immune cell phenotype and Ki67 proliferation markers using flow cytometric analysis. Cells were stained separately with two panels of antibodies as listed: 1) anti-mouse Foxp3-FITC, Ki67-PE, anti-mouse CD25-APC and anti-mouse CD4-Percpcy5.5 (1:50 dilution) for CD4+T-regulatory cells (Treg); 2) anti-mouse CD3-FITC, Ki67-PE, anti-mouse CD335-APC and anti-mouse CD8-Percpcy5.5 (1:50 dilution) for CD8+T and NK cells.

P-0511: IL-2 L19H/S125I/Q126E Fc fusion, SEQ ID NO: 213
potency in inducing Treg cell proliferation and expansion in vivo (in words) [1]: comparable in vivo Treg stimulation efficacy as P-0560
Treg/Tconv ratio (Ki67 stimulation and cell counts) ([2]; all measured time points): most beneficial Treg/Tconv ratio
stimulation of Treg cell proliferation and expansion in vivo (in words) ([2]; days 3, 5, 7): stronger in vivo efficacy
